We go through 26 compounds from PubChem BioAssay AID330 (DTP/NCI, 2004).

The subject of this assay is P388 leukemia ip, CD2F1 mice, survival T/C. Briefly: NCI In Vivo Anticancer Drug Screen. Data for tumor model P388 Leukemia (intraperitoneal) in CD2F1 (CDF1) mice. The settings on record: endpoint: median survival time, higher = longer survival. In outline:
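Mice carrying the transplanted tumor received test compound or vehicle. Survival was recorded in each group, and the value is the treated-group measurement divided by that of the vehicle-treated control group.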

The mark [1] stands for this setting: dose: 50.0 mg/kg/injection, schedule: Q01DX009 (ip), vehicle: saline with Tween-80.
The mark [2] stands for this setting: dose: 100.0 mg/kg/injection, schedule: Q01DX009 (ip), vehicle: saline with Tween-80.
The mark [3] stands for this setting: dose: 200.0 mg/kg/injection, schedule: Q01DX009 (ip), vehicle: saline with Tween-80.
The mark [4] stands for this setting: dose: 50.0 mg/kg/injection, schedule: Q04DX003 (ip), vehicle: saline with Tween-80.
Where [5] appears, read: dose: 100.0 mg/kg/injection, schedule: Q04DX003 (ip), vehicle: saline with Tween-80.
[6] abbreviates: dose: 50.0 mg/kg/injection, schedule: Q01DX009 (ip), vehicle: saline.
The mark [7] stands for this setting: dose: 100.0 mg/kg/injection, schedule: Q01DX009 (ip), vehicle: saline.
The mark [8] stands for this setting: dose: 200.0 mg/kg/injection, schedule: Q01DX009 (ip), vehicle: saline.
[9] abbreviates: dose: 50.0 mg/kg/injection, schedule: Q01DX005 (ip), vehicle: saline with Tween-80.
Where [10] appears, read: dose: 100.0 mg/kg/injection, schedule: Q01DX005 (ip), vehicle: saline with Tween-80.
Setting [11] is: dose: 200.0 mg/kg/injection, schedule: Q01DX005 (ip), vehicle: saline with Tween-80.
The mark [12] stands for this setting: dose: 60.0 mg/kg/injection, schedule: Q01DX005 (ip), vehicle: Klucel (hydroxypropylcellulose) (HPC).
[13] abbreviates: dose: 120.0 mg/kg/injection, schedule: Q01DX005 (ip), vehicle: Klucel (hydroxypropylcellulose) (HPC).
[14] abbreviates: dose: 50.0 mg/kg/injection, schedule: Q01DX005 (ip), vehicle: saline.
The mark [15] stands for this setting: dose: 200.0 mg/kg/injection, schedule: Q01DX005 (ip), vehicle: saline.
[16] abbreviates: dose: 100.0 mg/kg/injection, schedule: Q01DX001 (ip), vehicle: Klucel (hydroxypropylcellulose) (HPC).
[17] abbreviates: dose: 100.0 mg/kg/injection, schedule: Q01DX005 (ip), vehicle: saline.

Several values for one entry are separate records, joined by “and”; a condition that tells them apart may be missing. Equal values may be shown once. Inconclusive results and toxic doses are left out.

As for `CCOC(=O)[C]1([Sn]([CH3])([CH3])[CH3])N=NC(C(=O)OC)=C1C(=O)OC` (stereo not given), the T/C (dose: 0.78 mg/kg/injection, schedule: Q01DX009 (ip), vehicle: saline) was 98 % of control and the T/C (dose: 1.56 mg/kg/injection, schedule: Q01DX009 (ip), vehicle: saline) is 89 % of control.

Consider `O=C(Nc1cccc2c1C(=O)c1cccc(NC(=O)c3ccc(C(=O)Nc4cccc5c4C(=O)c4cccc(NC(=O)c6ccccc6)c4C5=O)cc3)c1C2=O)c1ccccc1`, for which the T/C is 100 % of control under setting [1], 94 % of control under setting [2] and 93 % of control under setting [3].

Consider `O=C(O)c1cccc(C(=O)O)c1S(=O)(=O)c1ccccc1`, for which the T/C (dose: 100.0 mg/kg/injection, schedule: Q01DX001 (ip), vehicle: saline with Tween-80) was 99 % of control; the T/C (dose: 200.0 mg/kg/injection, schedule: Q01DX001 (ip), vehicle: saline with Tween-80) was 98 % of control; the T/C (dose: 400.0 mg/kg/injection, schedule: Q01DX001 (ip), vehicle: saline with Tween-80) was 95 % of control.

Turning to `CCN(CC)CC1(C)NN=C2C(n3cccc3)=CC=CN21` (stereo not given), the T/C (dose: 60.0 mg/kg/injection, schedule: Q01DX005 (ip), vehicle: saline) was 104 % of control and the T/C (dose: 120.0 mg/kg/injection, schedule: Q01DX005 (ip), vehicle: saline) was 100 % of control.

On to `Cc1nc(N)c2nc(SCc3ccc(Cl)cc3)c(N)nc2n1`, for which the T/C runs as follows: (dose: 25.0 mg/kg/injection, schedule: Q04DX003 (ip), vehicle: saline with Tween-80) 100 % of control; under setting [4], 90 % of control; under setting [5], 92 % of control.

Take `CCCN(CCC)CCCCO`: the T/C reads like this: under setting [4], 195 % of control; under setting [5], 100 % of control; (dose: 200.0 mg/kg/injection, schedule: Q04DX003 (ip), vehicle: saline with Tween-80) 100 % of control.

Turning to `NNc1nncn1N`, the T/C by setting is: under setting [6], 104 % of control and 91 % of control; under setting [7], 104 % of control and 89 % of control; under setting [8], 86 % of control and 95 % of control.

On to `COc1ccc(-n2nc3c(ccc4ccccc43)c2NC2CCCCC2)cc1`, for which the T/C was 104 % of control (dose: 60.0 mg/kg/injection, schedule: Q01DX005 (ip), vehicle: saline with Tween-80); 98 % of control (dose: 120.0 mg/kg/injection, schedule: Q01DX005 (ip), vehicle: saline with Tween-80); 102 % of control (dose: 240.0 mg/kg/injection, schedule: Q01DX005 (ip), vehicle: saline with Tween-80).

For `CCOC(=O)/C(C)=C1\N=C(c2ccccc2)OC(=NC2CCCCC2)N1C1CCCCC1`, the T/C runs as follows: under setting [9], 96 % of control; under setting [10], 91 % of control; under setting [11], 94 % of control.

On to `O=C(OC(c1ccccc1)(C(F)(F)F)C(F)(F)F)c1ccccc1Sc1ccccc1`, for which the T/C runs as follows: under setting [2], 95 % of control; under setting [3], 90 % of control; (dose: 400.0 mg/kg/injection, schedule: Q01DX009 (ip), vehicle: saline with Tween-80) 95 % of control.

Consider `O=S1(=O)Cc2c(Br)c(Br)c(Br)c(Br)c2C1`, for which the T/C reads like this: (dose: 12.5 mg/kg/injection, schedule: Q01DX009 (ip), vehicle: saline sonified) 109 % of control; (dose: 25.0 mg/kg/injection, schedule: Q01DX009 (ip), vehicle: saline sonified) 109 % of control; (dose: 50.0 mg/kg/injection, schedule: Q01DX009 (ip), vehicle: saline sonified) 109 % of control.

As for `CCCNCC(O)COc1ccc2c3c(c(=O)oc2c1)CCC3` (stereo not given), the T/C is 96 % of control under setting [12] and 96 % of control under setting [13].

Turning to `O=c1[nH]oc(=O)[nH]1`, the T/C was 95 % of control (dose: 6.25 mg/kg/injection, schedule: Q01DX005 (ip), vehicle: saline); 97 % of control (dose: 12.5 mg/kg/injection, schedule: Q01DX005 (ip), vehicle: saline); 94 % of control (dose: 25.0 mg/kg/injection, schedule: Q01DX005 (ip), vehicle: saline); 100 % of control and 91 % of control under setting [14]; 100 % of control under setting [15].

For `CC(C)(C)c1cc(OCC2CO2)c(C(C)(C)C)cc1OCC1CO1` (stereo not given), the T/C was 107 % of control (dose: 50.0 mg/kg/injection, schedule: Q01DX009 (ip), vehicle: Klucel (hydroxypropylcellulose) (HPC)); 105 % of control (dose: 100.0 mg/kg/injection, schedule: Q01DX009 (ip), vehicle: Klucel (hydroxypropylcellulose) (HPC)); 106 % of control (dose: 200.0 mg/kg/injection, schedule: Q01DX009 (ip), vehicle: Klucel (hydroxypropylcellulose) (HPC)); 116 % of control (dose: 400.0 mg/kg/injection, schedule: Q01DX009 (ip), vehicle: Klucel (hydroxypropylcellulose) (HPC)).

As for `N#CC[n+]1ccccc1`, the T/C reads like this: (dose: 12.5 mg/kg/injection, schedule: Q01DX009 (ip), vehicle: saline) 100 % of control; (dose: 25.0 mg/kg/injection, schedule: Q01DX009 (ip), vehicle: saline) 100 % of control; under setting [6], 101 % of control.

In the case of `COC(=O)/C(=C\Sc1ccccc1)NC(C)=O`, the T/C was 100 % of control under setting [12]; 98 % of control under setting [13]; 107 % of control (dose: 240.0 mg/kg/injection, schedule: Q01DX005 (ip), vehicle: Klucel (hydroxypropylcellulose) (HPC)).

On to `CCn1c(C)c(COC(=O)NC)c(COC(=O)NC)c1-c1ccc(Cl)c(Cl)c1`, for which the T/C (dose: 6.25 mg/kg/injection, schedule: Q01DX009 (ip), vehicle: distilled water + Tween-80) was 150 % of control and 152 % of control; the T/C (dose: 12.5 mg/kg/injection, schedule: Q01DX009 (ip), vehicle: distilled water + Tween-80) was 153 % of control.

Turning to `COc1ccc(/C(=C(\c2ccccc2)[N+](=O)[O-])c2ccc(OCCN3CCCC3)cc2)cc1`, the T/C by setting is: (dose: 25.0 mg/kg/injection, schedule: Q01DX009 (ip), vehicle: saline with Tween-80) 104 % of control; under setting [1], 100 % of control.

`CCC1(CC)CCC(C(=O)OC)/C1=N\Nc1ccc([N+](=O)[O-])cc1[N+](=O)[O-]` (stereo not given): the T/C under setting [16] is 102 % of control; the T/C (dose: 200.0 mg/kg/injection, schedule: Q01DX001 (ip), vehicle: Klucel (hydroxypropylcellulose) (HPC)) is 98 % of control; the T/C (dose: 400.0 mg/kg/injection, schedule: Q01DX001 (ip), vehicle: Klucel (hydroxypropylcellulose) (HPC)) was 100 % of control.

As for `Cc1noc(N)c1Sc1ccc(Br)cc1`, the T/C was 91 % of control under setting [9], 100 % of control under setting [10] and 108 % of control under setting [11].

With `C=CCOc1cc2c(cc1C/C=C/c1ccccc1)OCO2`, the T/C under setting [9] was 102 % of control, the T/C under setting [10] was 103 % of control and the T/C under setting [11] was 109 % of control.

Consider `CNC(=O)On1cc(Cl)cc1C#N`, for which the T/C (dose: 50.0 mg/kg/injection, schedule: Q01DX001 (ip), vehicle: Klucel (hydroxypropylcellulose) (HPC)) is 101 % of control and the T/C under setting [16] was 118 % of control.

On to `CC(=O)Nc1ccc(N=Nc2c(S(=O)(=O)O)cc3cc(NC(C)=O)ccc3c2O)cc1`, for which the T/C was 98 % of control and 100 % of control under setting [14]; 100 % of control and 103 % of control under setting [17]; 99 % of control under setting [15].

In the case of `Cc1cccc(CNc2cccc(C)n2)n1`, the T/C under setting [14] was 105 % of control and the T/C under setting [17] was 97 % of control.

For `CNC/C=C/CN(C)C(=S)S`, the T/C is, setting by setting: under setting [6], 108 % of control; under setting [7], 92 % of control; under setting [8], 96 % of control.

Consider `O=C/C=C/C1C=Cc2c3c(c(O)c(O)c2C(=O)C1O)OCC=C3` (stereo not given), for which the T/C was 94 % of control (dose: 6.0 mg/kg/injection, schedule: Q01DX009 (ip), vehicle: Klucel (hydroxypropylcellulose) (HPC)); 100 % of control (dose: 12.0 mg/kg/injection, schedule: Q01DX009 (ip), vehicle: Klucel (hydroxypropylcellulose) (HPC)); 97 % of control (dose: 24.0 mg/kg/injection, schedule: Q01DX009 (ip), vehicle: Klucel (hydroxypropylcellulose) (HPC)); 104 % of control (dose: 48.0 mg/kg/injection, schedule: Q01DX009 (ip), vehicle: Klucel (hydroxypropylcellulose) (HPC)).
